According to US4003887A, “Novel penicillins and their preparation” (Sumitomo Chemical Company, Limited, priority 1972, dated 1977):
Values after ≈ are worked out from the molar mass of the structure shown.

Experiments:
[1] = test system: gram-positive and gram-negative bacteria; conditions: literature, words; cited from earlier work
[2] = test system: Klebsiella pneumoniae PC1602; experiment: Minimal inhibitory concentration, agar dilution method; type: cell-based
From the text: (§1) When determined according to the agar dilution method, the penicillins (I) afford the minimal inhibitory concentrations against test microorganisms as shown in Table 2.

Pseudomonas = conditions: literature, words; cited from earlier work
Escherichia coli NIHJ = experiment: Minimal inhibitory concentration, agar dilution method; type: cell-based
From the text: as §1

[3] = test system: Staphylococcus aureus 209P; experiment: as above; type: cell-based
From the text: as §1

[4] = test system: Pseudomonas aeruginosa 104; experiment: as above; type: cell-based
From the text: as §1

Proteus miravilis GN2425 = experiment: as above; type: cell-based

MIC (Escherichia coli NIHJ) [µg/mL]	MIC [3] [µg/mL]	MIC [4] [µg/mL]	MIC (Proteus miravilis GN2425) [µg/mL]	Structure (SMILES)	inhibition of growth of gram-positive and gram-negative bacteria [1]	MIC [2] [µg/mL]	antimicrobial activity against Pseudomonas (Pseudomonas)
–	–	–	–	CC1(C)S[C@@H]2C(NC(=O)C(N)c3ccc(O)cc3)C(=O)N2[C@H]1C(=O)O (stereo partly drawn) [Amoxycillin, 6-(α-amino-p-hydroxyphenylacetamido)penicillanic acid]	inhibit the growth of various gram-positive and gram-negative bacteria	> 200	do not exert any appreciable antimicrobial activity against Pseudomonas
–	–	–	–	CC1(C)S[C@@H]2C(NC(=O)C(N)c3ccccc3)C(=O)N2[C@H]1C(=O)O (stereo partly drawn) [Ampicillin, 6-(α-amino-phenylacetamido)penicillanic acid]	inhibit the growth of various gram-positive and gram-negative bacteria	–	do not exert any appreciable antimicrobial activity against Pseudomonas
–	–	–	–	CC1(C)S[C@@H]2[C@H](NC(=O)C3(N)CCCCC3)C(=O)N2[C@H]1C(=O)O [Cyclacillin, 6-(1-amino-cyclohexane)carboxamidopenicillanic acid]	inhibit the growth of various gram-positive and gram-negative bacteria	–	do not exert any appreciable antimicrobial activity against Pseudomonas
–	–	–	–	CC1(C)S[C@@H]2[C@H](NC(=O)[C@H](N)C3=CCC=CC3)C(=O)N2[C@H]1C(=O)O [Epicillin, 6-[α-amino-2-(1,4-hexadienylacetamido)]penicillanic acid]	inhibit the growth of various gram-positive and gram-negative bacteria	–	do not exert any appreciable antimicrobial activity against Pseudomonas
12.5 (≈ 18.2 µM)	0.39 (≈ 0.569 µM)	12.5 (≈ 18.2 µM)	12.5 (≈ 18.2 µM)	CC1(C)S[C@@H]2[C@H](NC(=O)[C@H](NC(=O)c3cnc4ccc(NC(=O)OCc5ccccc5)cc4c3O)c3ccc(O)cc3)C(=O)N2[C@H]1C(=O)O [Example 21]	–	3.13 (≈ 4.56 µM)	–
